These results are taken from PubChem BioAssay AID328 (DTP/NCI, 2004).

The test has as its system BDF1 mice, P388 leukemia ip, median survival T/C. Briefly: NCI In Vivo Anticancer Drug Screen. Data for tumor model P388 Leukemia (intraperitoneal) in B6D2F1 (BDF1) mice. The settings on record: endpoint: median survival time, higher = longer survival. Summed up: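 Read-out is survival of treated animals expressed relative to the vehicle group, as a T/C ratio.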
Setting [1] is: dose: 50.0 mg/kg/injection, schedule: Q01DX009 (ip), vehicle: saline with Tween-80.
Setting [2] is: dose: 100.0 mg/kg/injection, schedule: Q01DX009 (ip), vehicle: saline with Tween-80.
The mark [3] stands for this setting: dose: 200.0 mg/kg/injection, schedule: Q01DX009 (ip), vehicle: saline with Tween-80.
[4] abbreviates: dose: 100.0 mg/kg/injection, schedule: Q01DX001 (ip), vehicle: Klucel (hydroxypropylcellulose) (HPC).

Values joined by “and” are separate entries in the source; they are usually repeats but may differ in a detail not shown here. Equal entries are not always repeated. Toxic doses and inconclusive results are not listed.

Take `COC(=O)[C@@H]1[C@@H](O)[C@H](OC(=O)c2cc(OC)c(OC)c(OC)c2)C[C@@H]2CN3CCc4c([nH]c5ccccc45)[C@H]3C[C@@H]21`: the T/C (dose: 1.56 mg/kg/injection, schedule: Q01DX009 (ip), vehicle: saline with Tween-80) was 90 % of control; the T/C (dose: 2.0 mg/kg/injection, schedule: Q01DX009 (ip), vehicle: Klucel (hydroxypropylcellulose) (HPC)) is 100 % of control; the T/C (dose: 3.13 mg/kg/injection, schedule: Q01DX009 (ip), vehicle: saline with Tween-80) was 90 % of control; the T/C (dose: 4.0 mg/kg/injection, schedule: Q01DX009 (ip), vehicle: Klucel (hydroxypropylcellulose) (HPC)) is 100 % of control; the T/C (dose: 6.25 mg/kg/injection, schedule: Q01DX009 (ip), vehicle: saline with Tween-80) is 86 % of control; the T/C (dose: 8.0 mg/kg/injection, schedule: Q01DX009 (ip), vehicle: Klucel (hydroxypropylcellulose) (HPC)) was 100 % of control. Besides, the T/C (dose: 16.0 mg/kg/injection, schedule: Q01DX009 (ip), vehicle: Klucel (hydroxypropylcellulose) (HPC)) was 100 % of control.
With `ClCCn1cnc2c(SCc3ccccc3)ncnc21`, the T/C is 100 % of control (dose: 100.0 mg/kg/injection, schedule: Q04DX003 (ip), vehicle: saline with Tween-80); 100 % of control (dose: 200.0 mg/kg/injection, schedule: Q04DX003 (ip), vehicle: saline with Tween-80); 100 % of control (dose: 400.0 mg/kg/injection, schedule: Q04DX003 (ip), vehicle: saline with Tween-80).
For the compound `CC[C@@]1(O)C[C@H](OC2CC(N(C)C)C(OC3CC(O)C(OC4CCC(=O)C(C)O4)C(C)O3)C(C)O2)c2c(cc3c(c2O)C(=O)c2c(O)cccc2C3=O)[C@H]1C(=O)OC` (some centres undefined), the T/C is 100 % of control (dose: 0.25 mg/kg/injection, schedule: Q01DX009 (ip), vehicle: water); 116 % of control (dose: 0.5 mg/kg/injection, schedule: Q01DX009 (ip), vehicle: saline); 154 % of control (dose: 2.0 mg/kg/injection, schedule: Q01DX009 (ip), vehicle: water); 169 % of control (dose: 3.24 mg/kg/injection, schedule: Q04DX003 (ip), vehicle: water); 166 % of control (dose: 4.0 mg/kg/injection, schedule: Q01DX009 (ip), vehicle: saline); 194 % of control (dose: 4.0 mg/kg/injection, schedule: Q01DX009 (ip), vehicle: water). The T/C runs as follows: (dose: 4.7 mg/kg/injection, schedule: Q04DX003 (ip), vehicle: water) 116 % of control; (dose: 5.4 mg/kg/injection, schedule: Q04DX003 (ip), vehicle: water) 197 % of control; (dose: 8.0 mg/kg/injection, schedule: Q01DX009 (ip), vehicle: saline) 236 % of control; (dose: 9.0 mg/kg/injection, schedule: Q04DX003 (ip), vehicle: water) 203 % of control; (dose: 9.4 mg/kg/injection, schedule: Q04DX003 (ip), vehicle: water) 184 % of control.
On to `Clc1ccc(-c2cc(=[N+]3CCC4(CC3)SSC3(CC[N+](=c5cc(-c6ccc(Cl)cc6)ss5)CC3)S4)ss2)cc1` (centres undefined), for which the T/C reads like this: (dose: 25.0 mg/kg/injection, schedule: Q01DX009 (ip), vehicle: water) 110 % of control; (dose: 25.0 mg/kg/injection, schedule: Q04DX003 (ip), vehicle: water) 94 % of control; (dose: 50.0 mg/kg/injection, schedule: Q01DX009 (ip), vehicle: water) 121 % of control; (dose: 50.0 mg/kg/injection, schedule: Q04DX003 (ip), vehicle: water) 101 % of control; (dose: 100.0 mg/kg/injection, schedule: Q04DX003 (ip), vehicle: water) 92 % of control; (dose: 200.0 mg/kg/injection, schedule: Q01DX009 (ip), vehicle: water) 121 % of control. The T/C is, setting by setting: (dose: 200.0 mg/kg/injection, schedule: Q04DX003 (ip), vehicle: water) 97 % of control; (dose: 400.0 mg/kg/injection, schedule: Q01DX009 (ip), vehicle: water) 121 % of control; (dose: 400.0 mg/kg/injection, schedule: Q04DX003 (ip), vehicle: water) 98 % of control.
With `O=C(CN1CC1)NCCCCCCCCNC(=O)CN1CC1`, the T/C (dose: 12.5 mg/kg/injection, schedule: Q01DX009 (ip), vehicle: saline with Tween-80) is 200 % of control; the T/C (dose: 25.0 mg/kg/injection, schedule: Q01DX009 (ip), vehicle: saline with Tween-80) was 259 % of control; the T/C (dose: 33.0 mg/kg/injection, schedule: Q04DX003 (ip), vehicle: saline with Tween-80) is 190 % of control; the T/C under setting [1] was 86 % of control; the T/C (dose: 50.0 mg/kg/injection, schedule: Q04DX003 (ip), vehicle: saline with Tween-80) is 209 % of control; the T/C (dose: 75.0 mg/kg/injection, schedule: Q04DX003 (ip), vehicle: saline with Tween-80) was 245 % of control.
For the compound `CCOC(=O)c1cc(C=O)c[nH]1`, the T/C is 93 % of control under setting [1], 99 % of control under setting [2] and 101 % of control under setting [3].
Consider `CCOCc1ccc(OCc2ccccc2)cc1`, for which the T/C by setting is: under setting [1], 94 % of control; under setting [2], 108 % of control; under setting [3], 119 % of control.
For `Cc1cc(C)c[n+](C2=C([O-])C(=O)C([n+]3cc(C)cc(C)c3)=C([O-])C2=O)c1` the same measures were 97 % of control, 97 % of control and 95 % of control.
In the case of `N=C(N)Sc1cc(O)ccc1O`, the T/C (dose: 50.0 mg/kg/injection, schedule: Q01DX009 (ip), vehicle: saline) was 109 % of control; the T/C (dose: 65.0 mg/kg/injection, schedule: Q01DX009 (ip), vehicle: saline) is 115 % of control; the T/C (dose: 100.0 mg/kg/injection, schedule: Q01DX009 (ip), vehicle: saline) was 115 % of control.
As to `CCCCCCCCCCSCCSCCSCCCCCCCCCC`, the T/C was 100 % of control (dose: 25.0 mg/kg/injection, schedule: Q01DX001 (ip), vehicle: Klucel (hydroxypropylcellulose) (HPC)); 100 % of control (dose: 50.0 mg/kg/injection, schedule: Q01DX001 (ip), vehicle: Klucel (hydroxypropylcellulose) (HPC)); 100 % of control under setting [4].
As for `COC1=C(C2=C(OC)C(=O)c3cc4oc(C)cc(=O)c4c(O)c3C2=O)C(=O)c2c(cc3oc(C)cc(=O)c3c2O)C1=O`, the T/C runs as follows: (dose: 0.37 mg/kg/injection, schedule: Q01DX009 (ip), vehicle: saline) 99 % of control; (dose: 0.75 mg/kg/injection, schedule: Q01DX009 (ip), vehicle: saline) 105 % of control; (dose: 1.5 mg/kg/injection, schedule: Q01DX009 (ip), vehicle: saline) 111 % of control; (dose: 3.0 mg/kg/injection, schedule: Q01DX009 (ip), vehicle: saline) 101 % of control.
Regarding `CCOc1ncc([N+](=O)[O-])c(OCC)n1`, the T/C by setting is: under setting [1], 101 % of control; under setting [2], 106 % of control; under setting [3], 108 % of control; (dose: 400.0 mg/kg/injection, schedule: Q01DX009 (ip), vehicle: saline with Tween-80) 106 % of control.
Turning to `CNC(C)c1ccc(C)cc1` (centres undefined), the T/C reads like this: (dose: 6.25 mg/kg/injection, schedule: Q04DX003 (ip), vehicle: saline) 100 % of control; (dose: 12.5 mg/kg/injection, schedule: Q04DX003 (ip), vehicle: saline) 104 % of control; (dose: 25.0 mg/kg/injection, schedule: Q04DX003 (ip), vehicle: saline) 100 % of control.
As for `CC(=O)CC(C)=O.CC(=O)CC(C)=O.C[CH2][Sn][CH2]C`, the T/C (dose: 12.5 mg/kg/injection, schedule: Q01DX001 (ip), vehicle: Klucel (hydroxypropylcellulose) (HPC)) is 116 % of control.
Turning to `O=C(Nc1cccc(Cl)c1)Oc1ccc2ccccc2c1`, the T/C by setting is: under setting [4], 109 % of control; (dose: 200.0 mg/kg/injection, schedule: Q01DX001 (ip), vehicle: Klucel (hydroxypropylcellulose) (HPC)) 113 % of control; (dose: 400.0 mg/kg/injection, schedule: Q01DX001 (ip), vehicle: Klucel (hydroxypropylcellulose) (HPC)) 100 % of control.
As for `N#CCCCCCl`, the T/C runs as follows: (dose: 25.0 mg/kg/injection, schedule: Q01DX001 (ip), vehicle: saline) 90 % of control; (dose: 50.0 mg/kg/injection, schedule: Q01DX001 (ip), vehicle: saline) 100 % of control; (dose: 100.0 mg/kg/injection, schedule: Q01DX001 (ip), vehicle: saline) 95 % of control and 100 % of control.
